Patent publication US4436662A, “Pyrrolo[3,4-d][2]benzazepinones” (Hoffmann-La Roche Inc., priority 1983, dated 1984)
Like-named read-outs stand apart in the source and are kept apart here.

Experiments:
[1] = tested on: convulsions (metrazol iv); experiment: Intravenous Antimetrazol Test; type: in vivo, Male CF-1 mice; details: Mus musculus, po, 1 h
Protocol: Intravenous Antimetrazol Test
Brief Description: Male CF-1 mice, 45-54 days old, housed in facilities for one week and food-deprived for about 24 hours, are used in this test. The test compound, dispersed in 5% acacia, is administered orally to three mice at 1/10 the dose at which lethality occurred in the TSP testing. One hour later, metrazol is administered intravenously at 70 mg/kg (convulsant dose 100 mg/kg) and animals are observed 30 seconds for protection against convulsions. If the compound is active orally, 3 animals are used per dose level.
Measurements Made: The number of animals protected from convulsions.
Calculations: If the drug is active and three mice are used per dose level, the approximate ED50 is calculated by the method of Miller and Tainter (Proc. Soc. Exp. Biol. Med. 57:261, 1944). If six or more mice are used per dose level, the ED50 values and 95% fiducial limits are calculated using a computer program based on the method of D. J. Finney ("Probit Analysis", Cambridge University Press, Cambridge, England, 1971).

[2] = LD50 (po) acute lethality; parameters: species or system mice; details: mouse, in vivo
[3] = target: 3H-Diazepam binding, rat brain cortical fragments; experiment: 3H-Diazepam Binding Assay; details: read-out: IC50 (nM), concentration required to inhibit binding by 50%, Tris buffer, assayed in triplicate
Protocol: Brief-Description: Rat brain cortical fragments are prepared and the binding procedures performed as described by Mohler and Okada (Life Sciences, 20, 2101, 1977) except that Tris buffer is substituted for Krebs buffer. Drugs are assayed in triplicate.
Measurements Made: Radioactivity is measured by liquid scintillation counting.

[4] = standard drugs, read-out: ED50 (95% Fiducial Limits)
[5] = mice, printed in binding results table
[6] = printed in antimetrazol results table
[7] = 1 hour before metrazol 70 mg/kg iv, 50% of animals protected from convulsive seizures, test compounds, read-out: ED50

| SMILES | ED50 [1, 4] [mg/kg] | LD50 [2, 5] [mg/kg] | LD50 [2, 6] [mg/kg] | IC50 [3] [nM] | ED50 [1, 7] [mg/kg] |
| --- | --- | --- | --- | --- | --- |
| CCC1(c2ccccc2)C(=O)NC(=O)NC1=O [Sodium Phenobarbital] | 19 | – | – | – | – |
| CNC1=Nc2ccc(Cl)cc2C(c2ccccc2)=[N+]([O-])C1 [Chlordiazepoxide] | 3.9 | – | – | – | – |
| CC1NC(=O)C2=C1c1ccc(Cl)cc1C(c1ccccc1Cl)=NC2 (centres unmarked) [8-Chloro-6-(2-chlorophenyl)-1,4-dihydro-1-methylpyrrolo[3,4-d][2]benzazepin-3(2H)-one] | – | > 1000 | > 1000 | 1 | 0.08 |
| CCN(CC)CCN1C(=O)CN=C(c2ccccc2F)c2cc(Cl)ccc21 [Flurazepam, reference compound] | – | – | – | 15.6 | – |
| CN1CC2=C(CN=C(c3ccccc3Cl)c3cc(Cl)ccc32)C1=O [8-chloro-6-(2-chlorophenyl)-1,4-dihydro-2-methylpyrrolo[3,4-d][2]benzazepin-3(2H)-one] | – | 800 | 800 | – | 0.08 |
| CN1C(=O)CN=C(c2ccccc2)c2cc(Cl)ccc21 [Diazepam] | 1 | – | – | – | – |
